Read-outs that look alike come from different tables or passages of the source. No end group written: not given here.
Key:
HLA-A*02:01 = molecular target: T1, HLA-A*02:01 (Homo sapiens, UniProt P04439, D140Y/D185E/D98H/E176V/E277Q/G131W/G231S/I119V/I121R/I166T/I218V/L300P/L318F/N151K/N90K/P208A/P217A/Q86G/Q94H/R138H/R169H/T345S); assay: fluorescence polarization-based competitive peptide binding assay
T1 construct: purchased Pure Protein, L.L.C

DM6 cells expressing TMC = assay: processing and presentation: T cells co-cultured with DM6 expressing tandem mini-gene constructs (51Cr release, IFN-γ ELISA); type: cell-based, human; conditions: for neoantigen processing and presentation (cytotoxic activity, IFN-γ production): DM6 expressing AAS-/MUT-encoding mini-gene construct
Source text: As illustrated in FIG. 9 and FIG. 10, to determine whether vaccine-induced T cells could recognize naturally processed antigen, the melanoma tumor cell line DM6 was transduced with a multi-mini-gene construct encoding mutated (MUT) or wild-type (WT) sequences of peptides incorporated into a vaccine. FIG. 9 illustrates that each minigene consists of 21 aa encoding either the MUT or WT sequences. A scheme depicting minigene construct characteristics and a representative MUT 21-mer aa sequence encoded in construct is shown. Vaccine-induced T cells, specific for AKAP13 containing the Q285K mutation, were incubated with MUT or WT expressing DM6 cells, supernatants collected after 24 h of incubation, and IFN-γ produced by T cells was measured in supernatants by ELISA (FIG. 10).
Tandem mini-gene constructs (TMC) were used for evaluating processing and presentation of neoantigens. All constructs were 19-21-mers encoding AAS- or WT-sequences for peptides included in vaccine. No spacers are present between sequences. A ubiquitination signal and two mini-gene controls (encoding G280 and WNV SVG9 peptides) were included to monitor processing and presentation. The amino acid sequence of a 21-mer encoding TMEM48 F169L is shown with mutated amino acid residue underlined. TMC also encoded the West Nile Virus (WNV) SVG9 (McMurtrey, C. P., et al., P.N.A.S., 105, 2981-2986, 2008) and melanoma G280 (Cox, A. L., et al., Science, 264, 716-719, 1994) antigenic determinants as controls (Table 6).
TMC were cloned into pMX (GFP+), expressed as retrovirus and used to transfect the HLA-A*02:01+ melanoma lines DM6 (Darrow, T. L., et al., J. Immunol., 142, 3329-3335, 1989) or A375 (obtained from ATCC and mycoplasma free). TMC expressing cells were selected by sorting for GFP+ cells expressing cell surface HLA-A*02:01/SVG9 peptide complexes as detected by a T cell receptor mimic (TCRm) monoclonal antibody (Kim S., et al., J. Immunol., 184, 4423-4430, 2010). AAS- and WT-TMC reactivity with the HLA-A*02:01/SVG9 peptide complex specific TCRm monoclonal antibody validated expression of the mini-gene constructs. […] Results are shown for parental DM6 (shaded histogram) and DM6 cells expressing AAS—(dashed line) and WT (solid line) TMC constructs. A representative experiment of four performed is shown.
DM6 cells expressing TMC were labeled with 25μCi ^51Cr for 1 h, washed and tested as targets in a standard 4 h assay using neoantigen-specific T cells as effectors (Carreno B. M. et al. 2012 J Immunol 188, 5839). DM6 cells expressing AAS—(closed rectangles) or WT—(closed circles) TMC were co-cultured with neoantigen-specific T cells at a 1:1 ratio, supernatants harvest at 16 h and IFN-γ production evaluated by ELISA as described (Carreno, B. M., et al., J Immunol., 188, 58395849, […]; plots in FIG. 38). Open triangles represent lysis obtained with parental DM6 cells. Percent specific lysis of triplicates (mean+standard deviation) is shown for each E:T ratio; spontaneous lysis was <5%. A representative experiment of two independent evaluations is shown.
FIG. 39 illustrates that neoantigen-specific CD8 T cells were co-cultured with DM6 expressing AAS- or WT-encoding TMC for 20 h and IFN-γ production determined by ELISA. T cells cultured with parental DM6 cells are indicated as media. Mean values+/−SD of duplicates are shown. Results are representative of 2 experiments performed. […] None of the neoantigen-specific T cells recognized WT-encoding TMC (FIGS. 38 and 39). Based on these findings and the immune monitoring results (FIG. 31), the nine neoantigens identified in this study fall into three distinct antigenic determinant categories (Sercarz, E. E., et al., Annu. Rev. Imunol., 11, 729-766, 1993; Assarsson, E., et al., J. Immunol., 178, 7890-7901, 2007).

[1] = fluorescence polarization-based competitive peptide-binding assay, high affinity log(IC50; nM) <3.7, read-out: Experimental Affinity log(IC50) (converted)

Sequence | IC50 (HLA-A*02:01; [1]) [nM] | Recognition of processed antigen (DM6 cells expressing TMC) | neoantigen processing and presentation (cytotoxic activity, IFN-γ production) (DM6 cells expressing TMC) | IC50 (HLA-A*02:01) [nM] | neoantigen processing and presentation (cytotoxic activity, IFN-γ production) (DM6 cells expressing TMC; listed as AKAP13 (Q285K)) | neoantigen processing and presentation (cytotoxic activity, IFN-γ production) (DM6 cells expressing TMC; listed as AKAP13 Q285K)
MLGEQLFPL | 224 | Yes | processed and presented |  |  | 
CLNEYHLFL | 1230 | Yes | processed and presented |  |  | 
IILVAVPHV |  |  | processed and presented |  |  | 
KLMNIQQKL |  | Yes |  | 1170 | processed, presented and recognized by vaccine-induced T cells | processed and presented
QLSCISTYV | 1260 | No | not processed and presented |  |  | 
